Measurements as given in patent publication US20240191217A1, “CAS10-BASED ASSAY FOR NUCLEIC ACID DETECTION” (priority 2021, published 2024).

Legend:
Assay type in all cases: biochemical
VmeNucC [1] = molecular target: T1, VmeNucC (Vibrio metoecus, UniProt P0DUD6); experiment: Effect of ATP on NucC nuclease activity (fluorescent DNA duplex reporter)
T1 construct: His8 (TEV-cleavable, vector pEV5HisTEV) (N, cleaved yes); made in house; host or cells: E. coli C43(DE3)
Procedure: FIG. 4: Factors influencing NucC activity. Relative activities were determined by comparing the relative increase in fluorescence signal over time. A: Effect of NaCl concentration. B: NucC activity in different buffers. C: Effect of ATP on NucC nuclease activity.
(§1) All assays were performed on a FluoStar Omega plate reader (BMG Labtech) using fluorescence detection (λex/em 544/590 nm) and Corning black, non-binding half-area 96-well plates. […] Fluorescence was measured in 30 s intervals at 37° C. for up to 60 min. […] To determine limit of detection, the means of fluorescence intensities ranging between 28 and 32 min was analysed by one-way ANOVA and for multiple comparisons the Brown-Forsythe and Welch ANOVA test was applied. […] Relative activities between reaction conditions was determined by comparing the relative rates of the reactions. Rates were assumed to be proportional to the change in fluorescence signal over time and calculated from the slopes of linear regression analysis. Target specificity was analysed by extracting the time point (Tt) when the fluorescence intensity crossed a threshold value. The threshold value was set to ⅛^th of the maximal measured fluorescence signal of the reference target. […]

VmeNucC [2] = molecular target: T1, VmeNucC; experiment: NucC assay using synthetic cA3 as activator; settings: FIG. 6
Procedure: FIG. 6: NucC assay using synthetic cA3 as activator. A: Selected fluorescence signal curves. B: The fluorescence intensities of measurements from 28-30 min reaction time were used for one-way ANOVA analysis. Multiplicity adjusted P values were calculated by Dunnett's multiple comparisons test (N=7). The assay was performed in duplicate. C: selected data from B with expanded y scale. ns: not significant, P value>0.05; ***: P value<0.001; ****: P value<0.0001.
as §1, with “value.” for “value. The threshold value was set to ⅛^th of the maximal measured fluorescence signal of the reference target.”

NucC = molecular target: T2, NucC (Vibrio metoecus, UniProt P0DUD6); experiment: Degradation of cA3 by NucC, liquid chromatography with UV detection; settings: 100 μM cA3 with 0.5 μM NucC in reaction buffer for 60 min
T2 construct: His8 (TEV-cleavable, vector pEV5HisTEV) (N, cleaved yes); made in house; host or cells: E. coli C43(DE3)
T2 sequence (P0DUD6 whole entry): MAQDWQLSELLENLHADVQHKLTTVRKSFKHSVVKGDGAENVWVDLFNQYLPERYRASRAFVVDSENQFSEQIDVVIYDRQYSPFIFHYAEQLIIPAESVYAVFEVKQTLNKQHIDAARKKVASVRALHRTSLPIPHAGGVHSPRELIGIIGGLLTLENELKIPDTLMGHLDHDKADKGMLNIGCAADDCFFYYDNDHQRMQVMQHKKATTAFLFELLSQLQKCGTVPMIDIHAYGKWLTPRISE
Procedure: LC chromatograms with UV monitoring at 254 nm showing the reaction of 100 μM cA3 with 0.5 μM NucC under assay conditions after 15 and 60 min. A reaction in which NucC had been omitted was allowed to proceed for 60 min.
Some Csx1/Csm6 family proteins have an intrinsic “ring nuclease” activity for the degradation of their cOA activator—an activity that is probably important in vivo for the control of the CRISPR mediated immune response (9). In the context of assay development however, this is an undesirable characteristic. Furthermore, it is difficult to remove this activity from Csx1/Csm6 family proteins as the activity is closely linked with cOA binding and/or with the HEPN ribonuclease activity (18, 19). To determine whether NucC degrades its cA3 activator, we incubated 100 μM cA3 with […] NucC in reaction buffer for 60 min and monitored the products by liquid chromatography and UV detection (FIG. 5) after removal of the enzyme by ultracentrifugation (MWCO 3 kDa). […] This is perhaps not surprising given that NucC is a double stranded DNase and the activator is a cyclic ribonucleotide.

T1 sequence (P0DUD6 whole entry): as above

Compound	NucC activity retained (VmeNucC [1]; ATP concentration of 2 mM) [%]	effect of ATP on NucC (VmeNucC [1]; ATP concentrations above 500 μM)	amount of synthetic cyclic nucleotide giving a clear signal (VmeNucC [2]) [pM]	depletion of cA3 by NucC (NucC)
Nc1ncnc2c1ncn2[C@@H]1O[C@H](COP(=O)(O)OP(=O)(O)OP(=O)(O)O)[C@@H](O)[C@H]1O [ATP]	50	minor adverse effect		
Nc1ncnc2c1ncn2[C@@H]1O[C@@H]2COP(=O)(O)O[C@H]3[C@@H](O)[C@H](n4cnc5c(N)ncnc54)O[C@@H]3COP(=O)(O)O[C@H]3[C@@H](O)[C@H](n4cnc5c(N)ncnc54)O[C@@H]3COP(=O)(O)O[C@H]2[C@H]1O [cA3, cyclic tri-adenylate]			≤ 10	no significant depletion
